Patent publication US7452902B2, “Imidazopyridines as cyclin dependent kinase inhibitors” (Schering Corporation, priority 2002, dated 2008)
pIC50: −log10 of the molar value.

The compounds below were run against T1, Cyclin E/CDK2 (Homo sapiens, UniProt P24941) (assay: Cyclin E/CDK2 in vitro kinase assay (SPA, 33P-ATP, biotinylated Histone H1 peptide)). Conditions: recombinant cyclin E/CDK2 from SF9 cells; 1 hour at room temperature; 8 point serial dilutions in duplicate.
T1 construct: The expressed protein was approximately 34 kDa in size; made in house; host or cells: SF9 insect cells (baculovirus, pVL1393)
Format: biochemical

| Structure (SMILES) | pIC50 |
| --- | --- |
| Brc1cnc2c(NCc3cncnc3)cc(-c3ccccc3)cn12 | 6.92 |
| Nc1ncc(CNc2cc(-c3ccccc3Cl)cn3c(Br)cnc23)cn1 | 7.12 |
| Clc1ccccc1-c1cc(NCc2cncnc2)c2ncc(Br)n2c1 | 7.44 |
